Laboratory results as given in PMC9597486, “Screening of protonstatin-1 (PS-1) analogs for improved inhibitors of plant plasma membrane H^+-ATPase activity” (Frontiers in Plant Science, 2022).

Target: T1, AHA2 central loop (recombinant His-AHA2 central loop) (Arabidopsis thaliana, UniProt P19456)
T1 construct: cytosolic central loop domain only, His-tagged recombinant, fluorescently labelled with NanoTemper RED protein labelling kit
T1 sequence (P19456 292-643 limits assumed): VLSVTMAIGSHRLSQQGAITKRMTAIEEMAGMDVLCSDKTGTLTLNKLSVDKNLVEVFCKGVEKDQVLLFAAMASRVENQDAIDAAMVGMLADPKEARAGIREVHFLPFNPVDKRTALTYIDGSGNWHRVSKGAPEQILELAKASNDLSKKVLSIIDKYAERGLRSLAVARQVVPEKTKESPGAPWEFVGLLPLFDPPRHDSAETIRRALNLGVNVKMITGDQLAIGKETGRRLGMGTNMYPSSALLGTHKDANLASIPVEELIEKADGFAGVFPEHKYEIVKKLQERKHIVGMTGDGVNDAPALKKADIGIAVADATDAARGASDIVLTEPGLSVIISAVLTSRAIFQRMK
Assay: microscale thermophoresis
Type: binding

Row | Kd | Structure (SMILES)
1 | 4880 ± 660 nM | O=C1NC(=S)S/C1=C\c1ccco1 [PS-1, (Z)-5-(furan-2-ylmethylene)-2-thioxothiazolidin-4-one]
2 | 550 ± 50 nM | O=C1NC(=S)S/C1=C\c1ccc[nH]1 [compound 27, (Z)-5-((1H-pyrrol-2-yl)methylene)-2-thioxothiazolidin-4-one]
